# Article PMC7817263, “Analysis of the Anti-Inflammatory and Analgesic Mechanism of Shiyifang Vinum Based on Network Pharmacology” (Evidence-based Complementary and Alternative Medicine : eCAM, 2021)
# Biological target: T1, COX-2 (Homo sapiens, UniProt P35354)
# T1 construct: purchased Beyotime Biotechnology (Shanghai, China)
# T1 sequence (P35354 18-604): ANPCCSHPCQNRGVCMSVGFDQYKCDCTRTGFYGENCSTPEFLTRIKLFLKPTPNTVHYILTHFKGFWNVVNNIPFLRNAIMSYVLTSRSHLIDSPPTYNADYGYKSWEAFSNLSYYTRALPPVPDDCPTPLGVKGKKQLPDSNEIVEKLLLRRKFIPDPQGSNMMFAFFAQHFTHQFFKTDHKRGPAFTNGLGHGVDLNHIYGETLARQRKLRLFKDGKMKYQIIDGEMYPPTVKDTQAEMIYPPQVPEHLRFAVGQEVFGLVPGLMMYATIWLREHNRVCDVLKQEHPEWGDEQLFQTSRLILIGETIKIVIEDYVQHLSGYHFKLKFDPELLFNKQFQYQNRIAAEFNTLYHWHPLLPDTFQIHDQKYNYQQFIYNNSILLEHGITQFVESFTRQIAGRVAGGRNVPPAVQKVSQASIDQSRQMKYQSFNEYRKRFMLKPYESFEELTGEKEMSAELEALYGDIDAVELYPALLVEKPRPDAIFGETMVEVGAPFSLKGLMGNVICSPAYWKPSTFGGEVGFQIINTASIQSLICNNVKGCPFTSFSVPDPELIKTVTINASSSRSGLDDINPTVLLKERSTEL
# Assay: COX-2 inhibitor screening kit, in vitro enzyme activity test (fluorescence)
# Assay type: biochemical
# Conditions: inhibition of COX-2 enzyme activity, probit regression
# Experimental: The COX-2 inhibitory activities of four monomer compounds and Shiyifang Vinum were detected with the COX-2 inhibitor screening kit. The blank control, 100% enzyme activity control, positive inhibition control, and sample wells were prepared, with three repeat wells in each group.
row,IC50 [µM],Structure (SMILES)
1,30.7,"O=c1c(O)c(-c2ccc(O)cc2)oc2cc(O)cc(O)c12 [Kaempferol, kaempferol]"
2,10.8,"O=c1cc(-c2ccc(O)c(O)c2)oc2cc(O)cc(O)c12 [Luteolin, luteolin]"
3,3.96,"O=c1c(O)c(-c2ccc(O)c(O)c2)oc2cc(O)cc(O)c12 [Quercetin, quercetin]"
